Measured values published in patent US20210220376A1, “ADDICTION TREATMENT OF AN ALCOHOL-CONSUMING PATIENT POPULATION” (Amygdala Neurosciences, Inc., priority 2018, published 2021).

Tested on: healthy male alcohol drinkers
Test: Phase 1 single-ascending-dose study of compound (2) coadministered with ethanol: safety
Assay type: in vivo, human
Protocol: This was a single-center, randomized, double-blind, placebo-controlled, single-ascending-dose cohort study to evaluate the safety and tolerability of the coadministration of up to 6 dose levels of compound (2) (25 mg, 50 mg, 100 mg, 200 mg, 400 mg and 600 mg) and EtOH in healthy male alcohol drinkers.
Within 27 days of the medical screening visit, subjects were enrolled and attended an inpatient Qualification Phase in which they received up to 5 standard drinks (14 grams of EtOH each; oral solution of vodka containing 40% [v/v] EtOH, mixed with a non-carbonated beverage, one drink every 30 minutes) to evaluate their tolerance to repeat administration to ensure they could safely tolerate the planned EtOH treatment. A minimum washout interval of 44 hours was performed between initiation of the last EtOH administration in the Qualification Phase and study drug administration in the Treatment Phase.
Following qualification, eligible subjects were enrolled and randomized to receive compound (2) or placebo in a 3:1 fashion in each of 6 cohorts (8 subjects per cohort). As a safety precaution, no more than 4 subjects were administered study drug on any given day. Planned compound (2) dose levels included doses of 25 mg, 50 mg, 100 mg, 200 mg, 400 mg, and 600 mg. Study drug administration occurred approximately 1 hour following ingestion of a standardized (moderate-fat) meal. Approximately 2 hours after receiving the study drug, subjects began a session of repeat EtOH administration, during which they could receive up to 5 doses of EtOH (14 grams each, approximately 1 standard drink) every 30 minutes, or until a stopping criterion applied. Safety assessments, pharmacodynamic assessments and pharmacokinetic blood sample collections were obtained up to 48 hours post-dose. Subjects were discharged after 48-hour post-dose procedures were completed and the investigator deemed it safe to do so. Subjects returned for the safety follow-up visit approximately 7 (±2) days following discharge from the Treatment Phase or after early discontinuation from the study.
The primary endpoints included frequency and severity of adverse events (AEs), ethanol reaction (ER) scores and flushing, laboratory values, vital signs, and electrocardiograms (ECGs).
Subjects' ER scores and flushing were summarized descriptively by timepoint, category and treatment. In addition, flushing, ER heat sensation and ER palpitation were compared between each of the active doses and placebo using a mixed-effect model for repeated measures (MMRM) analysis with treatment, visit, and treatment by visit as fixed effects and baseline as a covariate. The actual value was used as the dependent variable and visit included pre-EtOH, 30 minutes, 60 minutes, 90 minutes, 120 minutes, 150 minutes and 3 hours relative to the first EtOH administration in Treatment Phase. The variance-covariance matrix was assumed to be unstructured. […] Results were presented as least square means (LSMEANS), treatment differences in LSMEANS, 95% confidence intervals (CI) and p-values.
Vital signs measurements (respiratory rate, systolic and diastolic blood pressure, and heart rate) were summarized by treatment and visit. Heart rate and diastolic blood pressure were also compared between each of the active doses and placebo using an MMRM analysis with treatment, visit, and treatment by visit as fixed effects and baseline as a covariate.
Twelve-lead ECG results were summarized by timepoint and treatment, and frequencies (numbers and percentages) were calculated for the overall evaluation. Concomitant medications, clinical laboratory evaluations (raw data and change from baseline, as applicable) and physical examination findings were listed.

[1] = 200 mg, 135 min after first EtOH
[2] = 400 mg, 15 min after first EtOH
[3] = 400 mg, 45 min after first EtOH
[4] = 400 mg, 75 min after first EtOH
[5] = 400 mg, 105 min after first EtOH
[6] = 400 mg, 135 min after first EtOH
[7] = 600 mg, 15 min after first EtOH
[8] = 600 mg, 45 min after first EtOH
[9] = 600 mg, 75 min after first EtOH
[10] = 600 mg, 105 min after first EtOH
[11] = 600 mg, 135 min after first EtOH
[12] = Overall (N = 36), 15 min after first EtOH
[13] = Overall (N = 36), 45 min after first EtOH
[14] = Overall (N = 36), 75 min after first EtOH
[15] = Overall (N = 36), 105 min after first EtOH
[16] = Overall (N = 36), 135 min after first EtOH

Question: What does the source list for `O=C(NCc1ccc(-c2ccn(COP(=O)(O)O)c(=O)c2)cc1)c1c(Cl)cccc1Cl` [Compound (2), phosphoric acid mono-(4-{4-[(2,6-dichloro-benzoylamino)-methyl]-phenyl}-2-oxo-2H-pyridin-1-ylmethyl) ester]?
Answer: Diastolic Blood Pressure, Mean [1]: 69.3 mmHg; Heart Rate, Mean [1]: 96.2 beats/min; Systolic Blood Pressure, Mean [1]: 124.0 mmHg; Diastolic Blood Pressure, Mean (200 mg, Pre-EtOH): 73.8 mmHg; Heart Rate, Mean (200 mg, Pre-EtOH): 60.2 beats/min; Systolic Blood Pressure, Mean (200 mg, Pre-EtOH): 119.8 mmHg; subjects with TEAE of sinus tachycardia (200 mg, after EtOH): three; subjects with TEAE of tachycardia (200 mg, after EtOH): one; subjects with TEAE of tachypnea (200 mg, after EtOH): One; QTcF Interval, Aggregate, Mean (200 mg, prior to initiation of repeat EtOH administration session): 400.2 ms; subjects reporting a TEAE (400 mg): 100%; Diastolic Blood Pressure, Mean [2]: 71.3 mmHg; Systolic Blood Pressure, Mean [2]: 112.8 mmHg; Diastolic Blood Pressure, Mean [3]: 71.8 mmHg; Heart Rate, Mean [3]: 81.2 beats/min; Systolic Blood Pressure, Mean [3]: 120.0 mmHg; QTcF Interval, Aggregate, Mean (400 mg, 1 hour after initiation of repeat EtOH administration session): 394.8 ms; Diastolic Blood Pressure, Mean [4]: 70.5 mmHg; Heart Rate, Mean [4]: 82.7 beats/min; Systolic Blood Pressure, Mean [4]: 119.3 mmHg; Diastolic Blood Pressure, Mean [5]: 72.2 mmHg; Heart Rate, Mean [5]: 86.2 beats/min; Systolic Blood Pressure, Mean [5]: 118.5 mmHg; Diastolic Blood Pressure, Mean [6]: 71.0 mmHg; Heart Rate, Mean [6]: 83.7 beats/min; Systolic Blood Pressure, Mean [6]: 118.8 mmHg; Diastolic Blood Pressure, Mean (400 mg, Pre-EtOH): 71.7 mmHg; Heart Rate, Mean (400 mg, Pre-EtOH): 61.2 beats/min; Systolic Blood Pressure, Mean (400 mg, Pre-EtOH): 115.3 mmHg; QTcF Interval, Aggregate, Mean (400 mg, prior to initiation of repeat EtOH administration session): 396.7 ms; subjects reporting a TEAE (600 mg): 83.3%; Diastolic Blood Pressure, Mean [7]: 75.0 mmHg; Systolic Blood Pressure, Mean [7]: 122.3 mmHg; Diastolic Blood Pressure, Mean [8]: 75.0 mmHg; Heart Rate, Mean [8]: 85.2 beats/min; Systolic Blood Pressure, Mean [8]: 127.3 mmHg; QTcF Interval, Aggregate, Mean (600 mg, 1 hour after initiation of repeat EtOH administration session): 394.3 ms; Diastolic Blood Pressure, Mean [9]: 74.2 mmHg; Heart Rate, Mean [9]: 91.8 beats/min; Systolic Blood Pressure, Mean [9]: 130.2 mmHg; Diastolic Blood Pressure, Mean [10]: 72.0 mmHg; Heart Rate, Mean [10]: 91.8 beats/min; Systolic Blood Pressure, Mean [10]: 126.8 mmHg; Diastolic Blood Pressure, Mean [11]: 74.8 mmHg; Heart Rate, Mean [11]: 92.3 beats/min; Systolic Blood Pressure, Mean [11]: 127.7 mmHg; Diastolic Blood Pressure, Mean (600 mg, Pre-EtOH): 75.2 mmHg; Heart Rate, Mean (600 mg, Pre-EtOH): 61.2 beats/min; Systolic Blood Pressure, Mean (600 mg, Pre-EtOH): 120.2 mmHg; QTcF Interval, Aggregate, Mean (600 mg, prior to initiation of repeat EtOH administration session): 393.8 ms; deaths or serious adverse events (25-600 mg oral with up to 5 doses of EtOH (14 g each)): no deaths or serious adverse events; Diastolic Blood Pressure, Mean [12]: 74.0 mmHg; Systolic Blood Pressure, Mean [12]: 118.8 mmHg; Diastolic Blood Pressure, Mean [13]: 73.4 mmHg; Heart Rate, Mean [13]: 76.6 beats/min; Systolic Blood Pressure, Mean [13]: 122.0 mmHg; QTcF Interval, Aggregate, Mean (Overall (N = 36), 1 hour after initiation of repeat EtOH administration session): 401.1 ms; Diastolic Blood Pressure, Mean [14]: 72.5 mmHg; Heart Rate, Mean [14]: 82.9 beats/min; Systolic Blood Pressure, Mean [14]: 122.3 mmHg; Diastolic Blood Pressure, Mean [15]: 71.3 mmHg; Heart Rate, Mean [15]: 85.3 beats/min; Systolic Blood Pressure, Mean [15]: 121.7 mmHg; Diastolic Blood Pressure, Mean [16]: 72.8 mmHg; Heart Rate, Mean [16]: 82.5 beats/min; Systolic Blood Pressure, Mean [16]: 121.3 mmHg; Diastolic Blood Pressure, Mean (Overall (N = 36), Pre-EtOH): 73.4 mmHg; Heart Rate, Mean (Overall (N = 36), Pre-EtOH): 59.3 beats/min; Systolic Blood Pressure, Mean (Overall (N = 36), Pre-EtOH): 117.3 mmHg; QTcF Interval, Aggregate, Mean (Overall (N = 36), prior to initiation of repeat EtOH administration session): 399.4 ms; changes in diastolic blood pressure compared with placebo (after EtOH administration): no significant changes; changes in systolic blood pressure compared with placebo (after EtOH administration): no significant changes; subjects reporting a TEAE (all compound (2)-treated subjects): 88.9%; incidence of flushing and feeling hot compared with placebo (all doses): higher; compound (2)-treated subjects who did not consume all 5 EtOH administrations due to TEAEs (all doses, N = 36): 5.6%; flushing (all other doses (50-600 mg)): observed; tolerability (all treatments): generally well tolerated; ER subjective assessment compared with placebo (heat sensation, palpitations): more likely to report feeling heat sensation and feeling palpitations
